Patent publication US20260108614A1, “IMMOBILIZED ENDOGLYCOSIDASE FUSION PROTEIN AND USE THEREOF” (GENEQUANTUM HEALTHCARE (SUZHOU) CO., LTD., priority 2022, published 2026)
Where two headings read alike, the source gives them in different places. Square brackets hold non-standard residues; d marks the D form. Peptide text beside a SMILES is read from it. * marks the point of attachment. Dolaproine = CO[C@@H]([C@@H]1CCCN1)[C@@H](C)C(=O)O; Dil = CC[C@H](C)[C@H](NC)[C@@H](CC(=O)O)OC; X1 = C[C@@H](N*)[C@@H](O)c1ccccc1; NMeV = CN[C@H](C(=O)O)C(C)C

Columns and labels:
TROP2-positive cells = test: Tumor cell proliferation inhibition, TROP2-positive cells as a group; assay type: cell-based, human; settings: Example 19; BxPC-3 and FaDu
Method: (§1) 1) ErbB2/Her2-positive human breast cancer cells BT-474, ErbB2/Her2-positive human gastric cancer cells NCI-N87 and ErbB2/Her2-negative human liver cancer cells HepG2 were inoculated into a 96-well cell plate at 100 μl/well (1000 to 10000 cells), and incubated overnight in a cell incubator under the conditions of 37° C., 5% CO2, and 100% humidity.
(§2) Incubation was further performed at 37° C. for 72 to 120 h.
(§3) 3) The cell plate was removed from the 37° C. cell incubator, and equilibrated for about 30 min to room temperature. 100 μl of CellTiter Glo reagent was added into each well, a shaker shook for 2 min, followed by standing in a dark place at room temperature for 10 min, and a relative light unit (RLU) was measured with an MD M4 microplate reader.
(§4) BxPC-3, FaDu, HepG2 and other human tumor cells were selected.
(§5) TROP2-positive human tumor cells such as BxPC-3 (human pancreatic cancer cell) and FaDu (human throat cancer cell), and TROP2-negative tumor cells such as HepG2 (human liver cancer cell) were selected.

[1] = test system: BxPC-3 (human pancreatic cancer cell); test: Tumor cell proliferation inhibition, BxPC-3; assay type: cell-based; settings: Table 7; TROP2-positive; "—" = undetected; read-out: Inhibitory effect on proliferation of Tumor Cells (IC50, nM), BxPC-3
Method: as §1, §2, §3, §4, §5

[2] = test system: human liver cancer cells HepG2; test: Tumor cell proliferation inhibition (CellTiter Glo), HepG2; assay type: cell-based; settings: "—" = undetected, read-out: Inhibitory effect on proliferation of Tumor Cells (IC50, nM), HepG2
Method: as §1, §2, §3, §4, §5

[3] = test system: FaDu (human throat cancer cell); test: Tumor cell proliferation inhibition, FaDu; assay type: cell-based; settings: Table 7; TROP2-positive; "—" = undetected; read-out: Inhibitory effect on proliferation of Tumor Cells (IC50, nM), FaDu
Method: as §1, §2, §3, §4, §5

[4] = test system: ErbB2/Her2-positive cells; test: Tumor cell proliferation inhibition, ErbB2/Her2-positive cells as a group; assay type: cell-based, human; settings: Example 9; BT-474 and NCI-N87
[5] = test system: ErbB2/Her2-positive human gastric cancer cells NCI-N87; test: Tumor cell proliferation inhibition (CellTiter Glo), NCI-N87; assay type: cell-based; settings: Table 3; incubation 72 to 120 h; "—" = undetected; read-out: Inhibitory effect on proliferation of Tumor Cells (IC50, nM), NCI-N87
Method: as §1, §2, §3

[6] = test system: ErbB2/Her2-positive human breast cancer cells BT-474; test: Tumor cell proliferation inhibition (CellTiter Glo), BT-474; assay type: cell-based; settings: Table 3; incubation 72 to 120 h; "—" = undetected; read-out: Inhibitory effect on proliferation of Tumor Cells (IC50, nM), BT-474
Method: as §1, §2, §3

## CC[C@H](C)[C@@H]([C@@H](CC(=O)N1CCC[C@H]1[C@H](OC)[C@@H](C)C(=O)N[C@H](C)[C@@H](O)c1ccccc1)OC)N(C)C(=O)[C@@H](NC(=O)[C@@H](NC)C(C)C)C(C)C [MMAE, monomethylauristatin E, reference compound] (H-[NMeV]V[Dil][Dolaproine]-X1)
TROP2-positive cells
  inhibitory effect on proliferation of the TROP2-positive cells (in words): obvious inhibitory effect
[1]
  IC50: 0.388 nM
[2]; Table 3, ErbB2/Her2-negative cells, incubation 72 to 120 h
  IC50: 0.567 nM
[2]; Table 7, TROP2-negative
  IC50: 0.398 nM
[3]
  IC50: 0.167 nM
[4]
  inhibitory effect on proliferation of the ErbB2/Her2-positive cells (in words): obvious inhibitory effect
[5]
  IC50: 0.248 nM
[6]
  IC50: 0.272 nM
